Results taken from publication PMC11964630 (Journal of Pharmaceutical Analysis, 2024).

Test system: U87MG xenograft-bearing NOD/SCID mice
Test: Ex vivo biodistribution in U87MG xenograft model
Parameters: species or system mouse
Settings: single i.v. dose of atezolizumab 20 mg/kg, 24 h before [^18F]AlF-NOTA-PCP2

Substance: atezolizumab: anti-PD-L1 antibody used for blockade, 20 mg/kg
- decrease in tracer uptake in U87MG tumors: 92.2%
